Measurements: patent publication US20070117849A1, “Alfavbeta3 and alfavbet6 integrin antagonists as antifibrotic agents” (priority 2003, published 2007)

Columns and labels:
[1] = system: HSC/MF; assay: BrdU incorporation (cell proliferation, de novo DNA synthesis); assay type: cell-based, rat
Description: Briefly, the liver was perfused in situ through the portal vein using a 16-18 G cannula with calcium-free HBSS (Gybco, UK) for S min followed by 0,1% Pronase E (Sigma) and subsequently 0.025% type IV collagenase (Sigma) in Dulbecco's modified Eagle's medium for 10-15 min each. The digested liver was excised, gently minced and incubated further with 0.04% pronase, 0,025% collagenase, 0,002% DNAse (Sigma) in Dulbecco's modified Eagle's medium, supplemented with 25 mM HEPES at 37° C. for 10-30 min with gentle agitation. After filtration through 100 μm nylon gauze, parenchymal cells were removed by low speed centrifugation. […] Viability of the isolated cells was assessed by Trypan Blue exclusion and was routinely greater then 95-98%. […] Contamination with Kupffer cells was assessed by the ability to engulf 3 μm latex beads and was below 3-5% after isolation, and almost undetectable after the 1st passage. […]
BrdU incorporation: To assess cell proliferation de novo DNA synthesis was determined as BrdU incorporation. […] During last […] of incubation cells were pulse-labeled with BrdU and its incorporation measured using an ELISA kit (Roche) and a micro-plate reader. […]

[2] = system: CFSC-2G cells; assay: Scratch assay (cell migration), CFSC-2G cells; assay type: cell-based, rat; conditions: PDGF-BB 10 ng/ml, 17-20 h
Description: In addition the HSC cell lines CFSC-2G (moderately activated, kind gift of Dr. M. Rojkind, Washington DC, USA) were used.
(§1) Scratch assay: Cell migration was estimated by measuring the reduction of scratch area. Cells were seeded on a 24-well plate at a density of 60,000 cells/well. After reaching confluency cells were starved in serum-free medium for 24 h before making a scratch through the cell monolayer using a sterile pipet tip. After wounding cells were pre-treated by the αvβ3-integrin inhibitor at increasing concentrations (10^−10M-10^−6M) for 30 min and then treated by PDGF-BB at a concentration of 10 ng/ml in the absence of serum. The reduction of scratch area was measured at three different points per well using a special ocular with net-micrometer after […].
(§2) All experiments were performed in cell culture with the myofibroblasts-like cell line CFSC-2G (HSC cell line derived from cirrhotic rat liver) and primary rat HSC/MF. To investigate the effect of the αvβ3 integrin inhibitor on cell migration cells were seeded on 24 well plates and after reaching confluence starved in the absence of FCS for 24 h. Scratches were done and the cells treated with PDFG-BB at 10 ng/ml in the presence or absence of the αvβ3 inhibitor at 10^−6-−10^9 M. The rate of migration was measured after 17-20 h as a reduction of initial scratch width. […]

[3] = system: CTGF; assay: Real-Time PCR of CTGF expression in CFSC-2G cells; assay type: cell-based, rat; conditions: PDGF-BB 10 ng/ml 24 h, inhibitor 10^−6-10^−8 M, dose-dependent, maximum of inhibition at 10^−6 M
Description: (§3) Real-Time PCR Total RNA was isolated from the cell lysates using the RNApure commercial kit (PeqLab, Erlangen, Germany) according to the manufacturer's recommendations. Template cDNA was obtained by reverse transcription of […] of total RNA.
(§4) Relative transcript levels were quantified by real time RT-PCR using the LightCycler system (Roche), using 1,5 μl of template cDNA dilution in a total reaction volume of 15 μl that included Taq DNA-Polymerase, dNTP-mix, reaction buffer, and 3.0 mM MgCl2 provided by the “LightCycler FastStart DNA Master Hybridization Probes Kit” (Roche Molecular Biochemicals, Mannheim, Germany) according to the manufactor's instructions. For every measured transcript a 1:2 to 1:32 dilution series of one sample was used as standard. Data were analyzed with the LightCycler software using the “proportional second derivative maximum” option. The housekeeping genes beta-2 microglobulin or GAPDH were amplified in a parallel reaction for normalization of the results. […]
(§5) To investigate whether the […] integrin inhibitor had any effect on ECM expression in HSC/MF mRNA, expression of a spectrum of the major pro- and anti-fibrogenic molecules like procollagen α1(I) I, TGFβ1, TGFβ2, MMP-3, MMP-13, MMP-2, connective tissue growth factor (CTGF) and TIMP-1 was measured by Real-Time PCR. […]

[4] = system: primary rat HSC/MF; assay: Scratch assay (cell migration), primary rat HSC/MF; assay type: cell-based
Description: Briefly, the liver was perfused in situ through the portal vein using a 16-18 G cannula with calcium-free HBSS (Gybco, UK) for S min followed by 0,1% Pronase E (Sigma) and subsequently 0.025% type IV collagenase (Sigma) in Dulbecco's modified Eagle's medium for 10-15 min each. The digested liver was excised, gently minced and incubated further with 0.04% pronase, 0,025% collagenase, 0,002% DNAse (Sigma) in Dulbecco's modified Eagle's medium, supplemented with 25 mM HEPES at 37° C. for 10-30 min with gentle agitation. After filtration through 100 μm nylon gauze, parenchymal cells were removed by low speed centrifugation. The HSC fraction was collected from the gradient interface after enrichment by a two-step centrifugation through a 11 and 13% gradient of Nycodenz (Sigma) at 1500 g for 15 min without braking, and plated at a density 0.5×10^6/cm^2 in DMEM supplemented with 10% FCS, penicillin and streptomycin. Medium was changed after 24 h, and further every 48 hours. Viability of the isolated cells was assessed by Trypan Blue exclusion and was routinely greater then 95-98%. Purity of HSC isolates was confirmed by their typical morphological appearance: lipid-droplets in the cytoplasm showing greenish autofluorescence at 390 nm excitation and star-like shape. Contamination with Kupffer cells was assessed by the ability to engulf 3 μm latex beads and was below 3-5% after isolation, and almost undetectable after the 1st passage. For experiments cells were used between the 1st and 3rd passage, if not stated otherwise.
as §1, §2

[5] = system: procollagen α1(I), TGFβ1, TGFβ2, MMP-3, MMP-13, MMP-2, TIMP-1; assay: Real-Time PCR of other pro- and anti-fibrogenic molecules in HSC/MF; assay type: cell-based, rat; conditions: PDGF-BB 10 ng/ml 24 h; data not shown
Description: as §3, §4, §5

[6] = system: secondary biliary liver fibrosis; assay: Rat fibrosis model of bile duct occlusion (secondary biliary liver fibrosis); assay type: in vivo; conditions: after 5-6 weeks of bile duct occlusion, pilot experiments
Description: Animal experimentation: Male adult Wistar rats, average weight 206±19 g, underwent the following microsurgical procedure under an operating microscope (OPMI 6-S, Zeiss, Germany) (45-47): 1. midline abdominal incision following anesthesia with 100 mg/kg ketamine-hydrochloride (Ketanest®, Parke-Davis, Germany) and 10 mg/kg 5,6-dihydro-2-(2,6-xylidino)-4H-1,3-thiazine-hydrochloride (Rompun®, Bayer, Germany); 2. dissection of the common bile duct, insertion of a teflon catheter (Abbocath®-T 26 G, Venisystems, USA) and placement of a distal complete and a proximal incomplete ligature with 5-0 silk (Perma-hand®, Ethicon, Germany); 3. retrograde injection of sodium-amidotrizoate (Ethibloc®, Ethicon Germany) at a dose of […] body weight; 4. removal of the catheter, closure of the proximal ligature, scission of the bile duct between the ligatures and wound closure. After bile duct occlusion (BDO), animals received normal chow (Altromin®, Lage, Germany) and were allowed free access to water. […]
as §5

SMILES	serum-stimulated cell proliferation ([1]; 10% FCS, inhibitor 10^−6-10^−8 M)	PDGF-BB stimulated cell proliferation ([1]; all cell types, PDGF-BB 10 ng/ml, inhibitor 10^−8-10^−6 M, 24 h)	PDGF-BB induced cell migration into the scratch area ([2]; inhibitor 10^-9-10^-6 M, dose-dependent)	PDGF-BB induced cell migration at 10^−6 M ([2]; inhibitor 10^−6 M)	CTGF expression [3]	inhibition of migration at reduced concentrations of FCS ([4]; FCS 0,25%, data not shown)	cell migration stimulated by FCS ([4]; HSC/MF, FCS-stimulated, inhibitor 10^−10-10^−6 M, 20 h)	PDGF-BB induced cell migration into the scratch area ([4]; primary rat HSC/MF, PDGF-BB 10 ng/ml, inhibitor 10^-9-10^-6 M, 17-20 h, dose-dependent)	PDGF-BB induced cell migration at 10^−6 M ([4]; primary rat HSC/MF, PDGF-BB 10 ng/ml, inhibitor 10^−6 M, 17-20 h)	transcripts levels of other ECM molecules [5]	reduction of total liver collagen [6]
CNc1cccc(CCOc2ccc3c(C(CC(=O)O)c4ccc5nsnc5c4)c[nH]c3c2)n1 (centres unmarked) [EMD 409915, 3-Benzo[1,2,5]thiadiazol-5-yl-3-{6-[2-(6-methylamino-pyridin-2-yl)-ethoxy]-1H-indol-3-yl}-propionic acid]	absence of effect	did not have any effect	strongly inhibited	Complete abrogation	downregulated	did not show any significant inhibition	no effect	strongly inhibited	Complete abrogation	no change	
O=C(O)CC(NC(=O)C(COCc1ccccc1)NC(=O)CCCCNc1ccccn1)c1cc(Cl)cc(Cl)c1 (centres unmarked) [EMD 409849, 3-{3-Benzyloxy-2-[5-(pyridin-2-ylamino)-pentanoylamino]-propanoylamino}-3-(3,5-dichloro-phenyl)-propionic acid]											50-70%
